Structures are written as SMILES.

The target of the test is T1, 5-HT2C (Homo sapiens, UniProt P28335).
T1 construct: expressed in transfected cells; host or cells: HEK-293 cells
T1 sequence (P28335 33-458): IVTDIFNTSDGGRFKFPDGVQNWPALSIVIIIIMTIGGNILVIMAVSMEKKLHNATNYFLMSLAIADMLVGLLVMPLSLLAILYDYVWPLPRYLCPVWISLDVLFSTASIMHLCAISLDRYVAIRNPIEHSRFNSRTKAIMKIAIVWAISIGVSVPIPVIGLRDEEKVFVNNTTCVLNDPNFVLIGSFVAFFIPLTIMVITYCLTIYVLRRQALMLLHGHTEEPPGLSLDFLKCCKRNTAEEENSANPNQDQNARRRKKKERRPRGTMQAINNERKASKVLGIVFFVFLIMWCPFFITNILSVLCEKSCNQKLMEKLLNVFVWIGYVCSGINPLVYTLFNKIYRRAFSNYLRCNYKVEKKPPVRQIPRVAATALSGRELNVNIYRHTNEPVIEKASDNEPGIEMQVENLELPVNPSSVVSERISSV
Put plainly: In vitro radioligand binding assay, 5-HT2C, [3H]mesulergine. Also noted: concentration or dose not given beside the values. The settings on record: human recombinant (HEK-293 cells). Here is the method: Certain compounds were tested by in vitro binding assays using standard procedures. […] These receptors and assays are well known to those skilled in the art, as exemplified by the following: Abramovitz, M. et al. (2000), Biochem. Biophys. Acta., 1483: 285-293 (EP4, IP (PGI2)); Aharony, D. et al. (1993), Mol. Pharmacol., 44: 356-363 (NK2); Ardati, A. et al. (1997), Mol. Pharmacol., 51: 816-824 (NOP (ORL1)); Bignon, E. et al. (1999), J. Pharmacol. Exp. Ther. 289: 742-751 (CCK1 (CCKA)); Bloomquist, B. T. et al. (1998), Biochem. Biophys. Res. Commun., 243: 474-479 (GAL2); Brockhaus, M. et al. (1990), Proc. Natl. Acad. Sci. U.S.A., 87: 3127-3131 (TNF-α); Brown, G. B. (1986), J. Neurosci., 6: 2064-2070 (Na+ channel (site 2)); Buchan, K. W. et al. (1994), Brit. J. Pharmacol., 112: 1251-1257 (ETA); Cesura, A. M. et al. (1990), Mol. Pharmacol., 37: 358-366 (MAO-A); Choi, D. S. et al. (1994), FEBS Lett., 352: 393-399 (5-HT2B); Clark, A. F. et al. (1996), Invest. Ophtalmol. Vis. Sci., 37: 805-813 (GR); Couvineau, A. et al. (1985), Biochem. J., 231: 139-143 (VPAC1 (VIP1)); Dorje, F. et al. (1991), J. Pharmacol. Exp. Ther., 256: 727-733 (M1, M2, M3, M4); Ferry, G. et al. (2001), Eur. J. Pharmacol., 417: 77-89 (PPARγ); Fuchs, S. et al. (2001), Mol. Med., 7: 115-124 (ETB); Fuhlendorff, J. et al. (1990), Proc. Natl. Acad. Sci. U.S.A., 87: 182-186 (Y2); Ganapathy M E. et al. (1999), J. Pharmacol. Exp. Ther., 289: 251-260 (sigma (non-selective)); Gopalakrishnan, M. et al. (1996), J. Pharmacol. Exp. Ther., 276: 289-297 (N neuronal α4β2); Greengrass, P. and Bremner, R. (1979), Eur. J. Pharmacol., 55: 323-326 (α1 (non-selective)); Grandy, D. K. et al. (1989), Proc. Natl. Acad. Sci. U.S.A., 86: 9762-9766 (D25); Guard, S. et al. (1993), Eur. J. Pharmacol., 240:177-184 (BB (non-selective)); Heuillet, E. et al. (1993), J. Neurochem., 60: 868-876 (NK1, P2X); Hope, A. G. et al. (1996), Brit. J. Pharmacol., 118: 1237-1245 (5-HT3); Hoyer, D. et al. (1985), Eur. J. Pharmacol., 118: 1-12 (5-HT1B); Hugues, M. et al. (1982), J. Biol. Chem., 257: 2762-2769 (5-HT2A, SKCa channel); Joseph, S. S. et al. (2004), Naun.-Sch. Arch. Pharm., 369: 525-532 (β2); Le, M. T. et al. (2005), Eur. J. Pharmacol., 513: 35-45 (AT1); Le Fur, G. et al. (1983), Life Sci., 33: 449-457) (BZD (peripheral); Lee, Y. M. et al. (1993), J. Biol. Chem., 268: 8164-8169 (CCK2 (CCKB)); Leurs, R. et al. (1994), Brit. J. Pharmacol., 112: 847-854 (H2); Levin, M. C. et al. (2002), J. Biol. Chem., 277: 30429-30435 (11); Lewin, A. H. et al. (1989), Mol. Pharmacol., 35: 189-194 (Cl− channel (GABA-gated)); Lukas, R. J. (1986), J. Neurochem., 46: 1936-1941 (N muscle-type); Luthin, D. R. et al. (1995), Mol. Pharmacol., 47: 307-313; (A2A); Mackenzie, R. G. et al. (1994), Eur. J. Pharmacol., 266: 79-85 (D3); Mulheron, J. G. et al. (1994), J. Biol. Chem., 269: 12954-12962 (5-HT1A); Meng, F. et al. (1993), Proc. Natl. Acad. Sci. U.S.A., 90: 9954-9958 (κ (KOP)); Monsma, F. J. et al. (1993), Mol. Pharmacol., 43: 320-327 (5-HT6); Neote, K. et al. (1993), Cell, 72: 415-425 (CCR1); Pacholczyk, T. et al. (1991), Nature, 350: 350-354 (sst (non-selective, norepinephrine transporter)); Peralta, E. G. et al. (1987), Embo. J., 6: 3923-3929 (M3); Pristupa, Z. B. et al. (1994), Mol. Pharmacol., 45: 125-135 (dopamine transporter); Pruneau, D. et al. (1998), Brit. […]
Consider `Fc1cccc2c1[C@H]([C@@H]1CCCN1)OCC2` [Compound I-1, (S)-2-((R)-8-fluoroisochroman-1-yl)pyrrolidine], for which the “5HT2c percent inhibition of specific binding” value (“5HT2c percent inhibition” below) stood at 63%.

`Fc1ccc2c(c1)CCO[C@H]2[C@@H]1CCCN1` [Compound I-9, (S)-2-((R)-6-fluoroisochroman-1-yl)pyrrolidine]: the “5HT2c percent inhibition” value was determined as 61%.

For `Clc1ccc2c(c1)[C@H]([C@@H]1CCCN1)OCC2` [Compound I-29, (S)-2-((R)-7-chloroisochroman-1-yl)pyrrolidine], the “5HT2c percent inhibition” value turned out to be 67%.

Regarding `Fc1cccc2c1[C@H]([C@@H]1CCN1)OCC2` [Compound I-83, (S)-2-((R)-8-fluoroisochroman-1-yl)azetidine], the “5HT2c percent inhibition” value was determined as 64%.

For the compound `Fc1ccc2c(c1)CCO[C@H]2[C@@H]1CCN1` [Compound I-90, (S)-2-((R)-6-fluoroisochroman-1-yl)azetidine], the “5HT2c percent inhibition” value was found to be 59%.

Values taken from patent US10336732B2, “1-heterocyclyl isochromanyl compounds and analogs for treating CNS disorders” (Sunovion Pharmaceuticals Inc., priority 2015, dated 2019).
